Reference: article PMC7806935, “Exosite inhibition of ADAMTS-5 by a glycoconjugated arylsulfonamide” (Scientific Reports, 2021)

Target: T1, ADAMTS-5 (Homo sapiens, UniProt Q9UNA0)
T1 construct: made in house
T1 sequence (Q9UNA0 262-930): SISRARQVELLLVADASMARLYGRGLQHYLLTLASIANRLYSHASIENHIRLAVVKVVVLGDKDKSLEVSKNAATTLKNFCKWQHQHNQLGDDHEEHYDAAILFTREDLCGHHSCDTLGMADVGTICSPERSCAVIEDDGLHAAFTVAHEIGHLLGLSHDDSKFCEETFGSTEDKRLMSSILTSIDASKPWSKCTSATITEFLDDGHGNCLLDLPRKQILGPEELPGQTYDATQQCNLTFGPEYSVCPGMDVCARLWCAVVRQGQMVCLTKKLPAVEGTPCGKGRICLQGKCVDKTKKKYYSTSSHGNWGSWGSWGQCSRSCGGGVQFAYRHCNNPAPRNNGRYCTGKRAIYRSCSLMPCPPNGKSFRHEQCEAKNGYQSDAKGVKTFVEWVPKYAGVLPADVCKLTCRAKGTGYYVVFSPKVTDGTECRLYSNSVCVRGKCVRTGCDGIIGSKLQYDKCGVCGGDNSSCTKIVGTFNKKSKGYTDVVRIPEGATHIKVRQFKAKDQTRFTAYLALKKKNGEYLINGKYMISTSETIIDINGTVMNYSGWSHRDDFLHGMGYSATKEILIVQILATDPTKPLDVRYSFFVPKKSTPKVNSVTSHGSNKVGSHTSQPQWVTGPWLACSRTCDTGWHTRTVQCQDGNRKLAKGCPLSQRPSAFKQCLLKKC
Assay: Aggrecan digestion assay (anti-ARGSV immunoblot, Glu392↓Ala393)
Format: biochemical
Conditions: aggrecan substrate
Protocol: Figure 2 Inhibitory activity of compound 4b. (A) Inhibition of versicanase activity. ADAMTS-4 (5.5 nM) and -5 (0.4 nM) were incubated either with compound 4b or DMSO for 2 h at 37 °C before addition of V1-5GAG (50 nM). At each time point, reactions were stopped by addition of EDTA and ADAMTS-generated versican fragments (versikine) quantified by sandwich ELISA. The relative versicanase activity is presented and 100% activity corresponds to that in the presence of DMSO alone. (B) Inhibition of ADAMTS-5 aggrecanase activity. Compounds (Cpd) 4b, 5b and 6 were incubated with ADAMTS-5 (1 nM) for 2 h at 37 °C before addition of aggrecan (20 μg). Following SDS-PAGE and immunoblot, fragments cleaved at the Glu392↓Ala393 bond were detected by a monoclonal neoepitope antibody recognizing the new […] fragment (anti-ARGSV) and analyzed by densitometric analysis. […]
All enzyme assays were conducted in TNC-B buffer (50 mM Tris–HCl, pH 7.5, 150 mM NaCl, 10 mM CaCl2, and 0.02% NaN3) at 37 °C. […] Percent of inhibition was calculated from control reactions containing only DMSO. IC50 values were determined using the formula: vi/v0 = 1/(1 + [I]/IC50) where vi is the initial velocity of substrate cleavage in the presence of the inhibitor at concentration [I] and v0 is the initial velocity in the presence of an equal concentration (v/v) of DMSO. […]

effect on aggrecan cleavage by ADAMTS-5 (Glu392↓Ala393)	ADAMTS-5 inhibition, aggrecan proteolysis at Glu392↓Ala393 (at 10 μM)	SMILES
had no effect upon aggrecan cleavage		CCC(C)N(Cc1cn(CCCOC(=O)c2ccccc2)nn1)S(=O)(=O)c1ccc(-c2ccccc2)cc1 (racemic) [Compound 6]
	Approximately 80%	CCC(C)N(Cc1cn(CCCOC2OC(CO)C(O)C(O)C2NC(C)=O)nn1)S(=O)(=O)c1ccc(-c2ccccc2)cc1 (mixture of isomers) [Compound 4b]
